Experimental data taken from the NIST ThermoML archive (doi:10.1016/j.jct.2013.03.012).

Settings: for mass density: 101.33 kPa, Liquid, Levitation methods

[Ti] [titanium]
Settings	mass density [kg/m3]
1350 K	4235
1400 K	4223
1450 K	4211
1500 K	4200
1550 K	4188
1600 K	4176
1650 K	4164
1668 K	4160
1700 K	4152

Settings	Normal melting temperature [°C]
Crystal, Heating curve in electrostatic levitation apparatus	1668.1
